Paper PMC11238352, “Combination of dual JAK/HDAC inhibitor with regorafenib synergistically reduces tumor growth, metastasis, and regorafenib-induced toxicity in colorectal cancer” (Journal of Experimental & Clinical Cancer Research : CR, 2024)

Key:
SW480 cells [1] = assay: Cell cycle analysis by flow cytometry; type: cell-based; details: SW480, 24 h, 500 nM
Method: To evaluate the effect of drugs on cell cycle arrest, SW480 and RKO cells were seeded, 1 × 10^6/dish in triplicates in four groups: vehicle, JAK/HDACi, regorafenib, and their combination (for 24 h, following procedure described in our previous study. Cell cycle analysis was performed using BD LSR FortessaTM Flow Cytometer (BD Biosciences, Mountain View, CA).

HCT116 cells = assay: Annexin V-FITC/PI apoptosis flow cytometry; type: cell-based; details: HCT116, 72 h, average of three experiments
Method: (§1) To evaluate the effect of drugs on apoptosis, cells were stained by use of TACS Annexin V-FITC apoptosis detection kit obtained from R&D Systems (Minneapolis, MN), following the manufacturer’s protocol. CRC cells (HCT116, RKO, HT29, and SW480) were seeded at 1 × 10^5/dish in triplicates in four groups: vehicle, JAK/HDACi, regorafenib, and the combination for 72 h. The cells were analyzed with a BD LSR FortessaTM Flow Cytometer (BD Biosciences, Mountain View, CA).

HT29 cells = assay: Annexin V-FITC/PI apoptosis flow cytometry; type: cell-based; details: HT29, 72 h, average of three experiments
Method: as §1

RKO cells = assay: Annexin V-FITC/PI apoptosis flow cytometry; type: cell-based; details: 72 h, average of three experiments
Method: as §1

SW480 cells [2] = assay: Annexin V-FITC/PI apoptosis flow cytometry; type: cell-based; details: SW480, 72 h, average of three experiments
Method: as §1

[3] = test system: luciferase-tagged HT29 cells; assay: HT29 luciferase experimental metastasis model; type: in vivo; details: NSG mice
Method: To assess the effect of JAK/HDACi, regorafenib and their combination drug treatments on metastasis, an experiment was performed with 6-week-old NOD/SCID/IL2γ receptor-null (NSG) mice (male and female) as described. All procedures and experimental protocols were approved and conducted in compliance (IACUC-21501). For metastasis experiments, as described previously, tail vein injections with HT29 cells (0.5 × 10^6) carrying a luciferase expression construct were conducted. Mice were imaged at 0, 10, and 30 days post injection, and treated with vehicle or drugs (with JAK/HDACi, regorafenib and their combination). Drug treatments were performed as described in PDX experiment. Bioluminescence imaging was accomplished using an IVIS Lumina III instrument (Perkin Elmer, Waltham, MA), and mice were injected with luciferin 10 min prior to imaging. After 30 days, mouse lungs and kidneys were dissected, and ex vivo analyses were performed.

[4] = mouse, in vivo
Description: Upon completion of the experiment for 30 days in HT29 metastasis model, before mice were sacrificed, blood was collected and serum was isolated to evaluate liver and kidney functions to assess toxicity with JAK/HDACi and regorafenib alone, and their combination treatment, using a comprehensive Panel EWrap (Cat# 6330-COMP) by a DRY CHEM 4000 Analyzer.

[5] = Pharmacokinetics in plasma; type: in vivo; details: given in combination with JAK/HDACi, C57BL/6 mice plasma, 1, 7, 21, 48 h, i.p.
Method: Blood samples were collected from C57BL/6 mice treated with regorafenib and JAK-HDACi at 1, 7, 21, or 48 h after treatment, and plasma samples were assayed. The quantifications of regorafenib and JAK-HDACi in plasma were conducted using a Shimadzu LC-20AD LC (Shimadzu, OR) and an API5000 MS (Sciex, MA). For sample preparation, a one-step protein precipitation with acetonitrile was used. Plasma (10 µL) was added into 250 µL of acetonitrile. Chromatographic separation was performed using an ACE Excel 3 C18 column. The mobile phase was (A) 0.1% formic acid in water and (B) 0.1% formic acid in acetonitrile utilizing a gradient from 20% to 75%. The injection volume was 10 µL. The run time was 5 min, and the retention time was 2.4 min. Standard curves for regorafenib and JAK-HDACi in plasma were prepared in the ranges of 5–15,000 ng/ml.

Abl = target: T1, Abl (Homo sapiens, UniProt P00519); assay: PamStation PTK kinomic profiling; type: cell-based; details: change from DMSO control
T1 construct: cell lysates were prepared; endogenous in cells; host or cells: SW480 and RKO
Method: (§2) SW480 and RKO cells were treated with vehicle (DMSO), JAK/HDACi, regorafenib, and their combination for 45 min, and cell lysates were prepared. Tyrosine kinase (PTK) activity (kinomic) profiling was performed using the PamStation®12 platform (PamGene, BV, The Netherlands). As per standard kinomic protocol as described previously. Whole-chip comparative analysis (BioNavigator Upkin PTK v8.0) was performed between groups generating Mean Kinase Statistics (direction of change).

Axl = target: T2, Axl (Homo sapiens, UniProt P30530); assay: PamStation PTK kinomic profiling; type: cell-based; details: change from DMSO control
T2 construct: cell lysates were prepared; endogenous in cells; host or cells: SW480 and RKO
T2 sequence (P30530 26-894): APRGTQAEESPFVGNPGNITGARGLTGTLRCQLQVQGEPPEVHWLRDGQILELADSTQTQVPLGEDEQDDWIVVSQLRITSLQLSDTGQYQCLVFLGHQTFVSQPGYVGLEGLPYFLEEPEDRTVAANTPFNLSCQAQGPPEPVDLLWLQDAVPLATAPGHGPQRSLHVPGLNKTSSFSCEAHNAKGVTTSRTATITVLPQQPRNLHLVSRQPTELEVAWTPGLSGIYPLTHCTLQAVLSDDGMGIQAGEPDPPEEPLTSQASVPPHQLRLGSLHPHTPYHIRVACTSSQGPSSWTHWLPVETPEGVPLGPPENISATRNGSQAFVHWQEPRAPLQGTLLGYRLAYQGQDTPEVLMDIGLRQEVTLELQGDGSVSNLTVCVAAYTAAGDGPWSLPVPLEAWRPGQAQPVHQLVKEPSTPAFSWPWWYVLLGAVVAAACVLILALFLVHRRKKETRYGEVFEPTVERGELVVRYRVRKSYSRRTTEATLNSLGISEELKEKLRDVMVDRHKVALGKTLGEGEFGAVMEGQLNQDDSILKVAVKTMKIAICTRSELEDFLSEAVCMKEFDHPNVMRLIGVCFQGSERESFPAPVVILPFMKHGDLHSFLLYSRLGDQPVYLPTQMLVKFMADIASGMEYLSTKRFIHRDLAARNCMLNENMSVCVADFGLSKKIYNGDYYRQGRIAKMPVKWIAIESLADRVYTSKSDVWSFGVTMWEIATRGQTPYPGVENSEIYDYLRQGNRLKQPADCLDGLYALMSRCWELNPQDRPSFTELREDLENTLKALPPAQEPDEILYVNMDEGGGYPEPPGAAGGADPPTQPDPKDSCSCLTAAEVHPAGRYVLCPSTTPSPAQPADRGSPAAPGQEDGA
Method: as §2

EGFR = target: T3, EGFR (Homo sapiens, UniProt P00533); assay: PamStation PTK kinomic profiling; type: cell-based; details: change from DMSO control
T3 construct: cell lysates were prepared; endogenous in cells; host or cells: SW480 and RKO
T3 sequence (P00533 25-1210): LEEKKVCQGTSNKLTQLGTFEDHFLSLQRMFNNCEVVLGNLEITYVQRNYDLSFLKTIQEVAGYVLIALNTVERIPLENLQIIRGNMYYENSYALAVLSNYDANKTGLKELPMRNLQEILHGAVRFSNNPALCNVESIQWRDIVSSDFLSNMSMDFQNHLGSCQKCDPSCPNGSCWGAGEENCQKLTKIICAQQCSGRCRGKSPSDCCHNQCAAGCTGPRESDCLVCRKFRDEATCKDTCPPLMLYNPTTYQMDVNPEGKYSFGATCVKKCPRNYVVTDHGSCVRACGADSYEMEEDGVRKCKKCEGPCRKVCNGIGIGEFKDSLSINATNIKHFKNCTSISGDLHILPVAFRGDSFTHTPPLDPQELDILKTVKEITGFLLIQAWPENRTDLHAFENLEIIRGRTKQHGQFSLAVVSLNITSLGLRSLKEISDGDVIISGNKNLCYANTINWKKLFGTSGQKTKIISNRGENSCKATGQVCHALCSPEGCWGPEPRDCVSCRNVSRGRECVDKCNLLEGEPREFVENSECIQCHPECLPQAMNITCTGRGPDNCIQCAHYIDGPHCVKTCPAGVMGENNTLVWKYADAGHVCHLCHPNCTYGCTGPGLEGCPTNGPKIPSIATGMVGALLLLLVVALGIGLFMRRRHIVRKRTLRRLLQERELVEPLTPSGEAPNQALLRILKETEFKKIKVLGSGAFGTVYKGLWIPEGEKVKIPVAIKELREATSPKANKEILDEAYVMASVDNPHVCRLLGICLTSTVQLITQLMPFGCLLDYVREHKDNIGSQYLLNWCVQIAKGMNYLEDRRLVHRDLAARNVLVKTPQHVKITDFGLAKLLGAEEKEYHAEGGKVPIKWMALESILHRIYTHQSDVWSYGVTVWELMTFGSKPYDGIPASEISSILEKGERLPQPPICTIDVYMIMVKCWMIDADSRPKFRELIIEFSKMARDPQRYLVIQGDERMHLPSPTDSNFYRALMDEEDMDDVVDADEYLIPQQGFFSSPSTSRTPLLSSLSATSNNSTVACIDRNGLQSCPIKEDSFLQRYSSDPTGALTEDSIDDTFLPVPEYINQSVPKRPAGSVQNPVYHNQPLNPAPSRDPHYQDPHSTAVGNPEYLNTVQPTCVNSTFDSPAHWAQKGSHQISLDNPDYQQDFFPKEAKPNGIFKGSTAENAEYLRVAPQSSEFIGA
Method: as §2

EphA1 = target: T4, EphA1 (Homo sapiens, UniProt P21709); assay: PamStation PTK kinomic profiling; type: cell-based; details: change from DMSO control
T4 construct: cell lysates were prepared; endogenous in cells; host or cells: SW480 and RKO
Method: as §2

EphA2 = target: T5, EphA2 (Homo sapiens, UniProt P29317); assay: PamStation PTK kinomic profiling; type: cell-based; details: change from DMSO control
T5 construct: cell lysates were prepared; endogenous in cells; host or cells: SW480 and RKO
T5 sequence (P29317 24-976): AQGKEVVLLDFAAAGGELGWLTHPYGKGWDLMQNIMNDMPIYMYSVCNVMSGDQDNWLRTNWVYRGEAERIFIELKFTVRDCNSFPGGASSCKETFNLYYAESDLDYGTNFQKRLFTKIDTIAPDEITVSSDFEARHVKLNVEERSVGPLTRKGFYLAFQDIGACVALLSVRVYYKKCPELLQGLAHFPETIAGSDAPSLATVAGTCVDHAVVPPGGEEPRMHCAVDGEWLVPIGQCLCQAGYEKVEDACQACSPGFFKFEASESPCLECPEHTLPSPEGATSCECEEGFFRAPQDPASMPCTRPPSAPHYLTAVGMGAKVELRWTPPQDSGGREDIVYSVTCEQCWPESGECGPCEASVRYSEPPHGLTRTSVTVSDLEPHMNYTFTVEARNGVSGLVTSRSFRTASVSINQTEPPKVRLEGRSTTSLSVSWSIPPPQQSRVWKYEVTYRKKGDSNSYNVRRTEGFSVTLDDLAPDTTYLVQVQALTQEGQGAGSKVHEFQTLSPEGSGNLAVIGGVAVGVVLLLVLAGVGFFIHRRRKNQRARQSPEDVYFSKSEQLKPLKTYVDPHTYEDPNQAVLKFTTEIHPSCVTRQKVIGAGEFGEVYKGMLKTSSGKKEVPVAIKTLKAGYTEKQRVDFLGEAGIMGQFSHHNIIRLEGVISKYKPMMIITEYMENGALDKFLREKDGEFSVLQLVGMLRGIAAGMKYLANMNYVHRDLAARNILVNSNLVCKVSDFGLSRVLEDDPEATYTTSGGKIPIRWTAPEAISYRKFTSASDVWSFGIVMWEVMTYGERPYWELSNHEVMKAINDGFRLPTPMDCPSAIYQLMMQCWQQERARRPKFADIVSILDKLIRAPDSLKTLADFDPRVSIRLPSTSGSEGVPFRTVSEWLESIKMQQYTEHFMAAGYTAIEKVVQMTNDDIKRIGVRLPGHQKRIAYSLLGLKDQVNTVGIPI
Method: as §2

EphA3 = target: T6, EphA3 (Homo sapiens, UniProt P29320); assay: PamStation PTK kinomic profiling; type: cell-based; details: change from DMSO control
T6 construct: cell lysates were prepared; endogenous in cells; host or cells: SW480 and RKO
Method: as §2

EphA4 = target: T7, EphA4 (Homo sapiens, UniProt P54764); assay: PamStation PTK kinomic profiling; type: cell-based; details: change from DMSO control
T7 construct: cell lysates were prepared; endogenous in cells; host or cells: SW480 and RKO
Method: as §2

EphA5 = target: T8, EphA5 (Homo sapiens, UniProt P54756); assay: PamStation PTK kinomic profiling; type: cell-based; details: change from DMSO control
T8 construct: cell lysates were prepared; endogenous in cells; host or cells: SW480 and RKO
T8 sequence (P54756 25-1037): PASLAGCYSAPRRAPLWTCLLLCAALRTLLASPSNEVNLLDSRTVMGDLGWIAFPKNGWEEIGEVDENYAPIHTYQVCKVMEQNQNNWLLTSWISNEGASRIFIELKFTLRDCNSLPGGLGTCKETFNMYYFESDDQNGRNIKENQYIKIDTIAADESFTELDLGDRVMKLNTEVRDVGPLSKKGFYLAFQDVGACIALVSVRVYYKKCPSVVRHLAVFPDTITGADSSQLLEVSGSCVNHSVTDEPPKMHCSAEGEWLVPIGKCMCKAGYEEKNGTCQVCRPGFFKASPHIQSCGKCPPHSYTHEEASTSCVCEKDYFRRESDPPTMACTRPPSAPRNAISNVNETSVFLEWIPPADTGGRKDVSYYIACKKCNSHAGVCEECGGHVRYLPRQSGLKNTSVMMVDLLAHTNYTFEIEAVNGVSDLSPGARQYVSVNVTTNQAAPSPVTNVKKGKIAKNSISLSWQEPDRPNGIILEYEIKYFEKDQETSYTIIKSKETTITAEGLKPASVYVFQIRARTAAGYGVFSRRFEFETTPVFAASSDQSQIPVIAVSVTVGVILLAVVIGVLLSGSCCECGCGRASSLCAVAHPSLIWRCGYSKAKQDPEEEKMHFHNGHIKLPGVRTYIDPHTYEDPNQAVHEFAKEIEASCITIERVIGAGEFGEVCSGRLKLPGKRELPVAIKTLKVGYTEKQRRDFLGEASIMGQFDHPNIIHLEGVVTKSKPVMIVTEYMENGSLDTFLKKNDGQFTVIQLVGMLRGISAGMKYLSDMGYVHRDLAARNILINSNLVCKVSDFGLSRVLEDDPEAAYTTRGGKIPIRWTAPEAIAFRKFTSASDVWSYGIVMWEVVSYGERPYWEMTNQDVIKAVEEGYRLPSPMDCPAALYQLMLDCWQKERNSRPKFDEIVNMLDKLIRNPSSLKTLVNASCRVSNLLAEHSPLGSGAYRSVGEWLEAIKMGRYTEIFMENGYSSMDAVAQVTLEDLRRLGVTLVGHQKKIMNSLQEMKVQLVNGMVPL
Method: as §2

EphA8 = target: T9, EphA8 (Homo sapiens, UniProt P29322); assay: PamStation PTK kinomic profiling; type: cell-based; details: change from DMSO control
T9 construct: cell lysates were prepared; endogenous in cells; host or cells: SW480 and RKO
Method: as §2

FAK1 = target: T10, FAK1 (Homo sapiens, UniProt Q05397); assay: PamStation PTK kinomic profiling; type: cell-based; details: change from DMSO control
T10 construct: cell lysates were prepared; endogenous in cells; host or cells: SW480 and RKO
T10 sequence (Q05397 whole entry): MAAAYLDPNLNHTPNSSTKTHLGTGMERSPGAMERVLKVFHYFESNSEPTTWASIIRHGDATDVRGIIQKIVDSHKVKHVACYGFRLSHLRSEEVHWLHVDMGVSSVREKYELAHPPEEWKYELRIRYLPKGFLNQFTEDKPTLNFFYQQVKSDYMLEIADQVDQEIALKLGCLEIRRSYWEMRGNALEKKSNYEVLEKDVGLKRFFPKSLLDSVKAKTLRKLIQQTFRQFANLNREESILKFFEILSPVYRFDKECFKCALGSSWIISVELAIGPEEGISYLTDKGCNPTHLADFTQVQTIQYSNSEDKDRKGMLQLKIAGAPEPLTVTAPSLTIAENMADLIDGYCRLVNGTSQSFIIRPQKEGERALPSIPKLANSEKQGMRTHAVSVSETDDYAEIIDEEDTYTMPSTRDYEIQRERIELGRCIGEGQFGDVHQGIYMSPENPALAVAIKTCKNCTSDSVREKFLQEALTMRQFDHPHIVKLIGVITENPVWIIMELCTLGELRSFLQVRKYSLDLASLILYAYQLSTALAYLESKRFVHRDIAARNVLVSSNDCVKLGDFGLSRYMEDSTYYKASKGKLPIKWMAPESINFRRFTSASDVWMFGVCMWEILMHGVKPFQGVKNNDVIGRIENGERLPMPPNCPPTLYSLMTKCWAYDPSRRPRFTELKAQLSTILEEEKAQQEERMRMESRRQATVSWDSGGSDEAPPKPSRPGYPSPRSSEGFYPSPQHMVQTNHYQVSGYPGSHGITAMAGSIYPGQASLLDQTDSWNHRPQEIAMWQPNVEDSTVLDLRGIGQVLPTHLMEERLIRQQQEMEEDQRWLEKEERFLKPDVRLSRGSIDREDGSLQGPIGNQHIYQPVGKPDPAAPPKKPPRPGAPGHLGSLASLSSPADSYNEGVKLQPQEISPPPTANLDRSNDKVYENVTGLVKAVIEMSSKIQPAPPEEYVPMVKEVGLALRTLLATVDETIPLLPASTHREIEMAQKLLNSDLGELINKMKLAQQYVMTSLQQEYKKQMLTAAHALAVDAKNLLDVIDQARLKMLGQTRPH
Method: as §2

FAK2 = target: T11, FAK2 (Homo sapiens, UniProt Q14289); assay: PamStation PTK kinomic profiling; type: cell-based; details: RKO, 45 min, change from DMSO control
T11 construct: cell lysates were prepared; endogenous in cells; host or cells: SW480 and RKO
Method: as §2

## CNC(=O)c1cc(Oc2ccc(NC(=O)Nc3ccc(Cl)c(C(F)(F)F)c3)c(F)c2)ccn1 [regorafenib]
SW480 cells [1]
  cells arrested at the G0-G1 phase: 39.1%
  cells in synthesis (S) phase: 50%
HCT116 cells
  percentage of apoptotic cells (sum of early and late apoptotic cells): 13.62%
HT29 cells
  percentage of apoptotic cells (sum of early and late apoptotic cells): 5.16%
RKO cells
  percentage of apoptotic cells (sum of early and late apoptotic cells): 1.18%
SW480 cells [2]
  percentage of apoptotic cells (sum of early and late apoptotic cells): 11.17%
[3]
  bioluminescence intensity on day 30th: reduced intensities
[4]
  ALT: 16 U/L
  Albumin/Globulin: 1.0
  Creatinine: 0.4 mg/dL
  Globulin: 2.6 g/dL
  Total Billirubin: 0.5 mg/dL
  toxicity by serum analysis (liver and kidney functions): no evident toxicity
[5]
  bioavailability of regorafenib: increased
Abl; RKO, 45 min
  Mean Kinase Statistic, Abl: -0.036
Abl; SW480, 45 min
  Mean Kinase Statistic, Abl: -0.154
Axl; RKO, 45 min
  Mean Kinase Statistic, Axl: -0.027
Axl; SW480, 45 min
  Mean Kinase Statistic, Axl: -0.146
EGFR; RKO, 45 min
  Mean Kinase Statistic, EGFR: 0.026
EGFR; SW480, 45 min
  Mean Kinase Statistic, EGFR: -0.125
EphA1; RKO, 45 min
  Mean Kinase Statistic, EphA1: 0.168
EphA1; SW480, 45 min
  Mean Kinase Statistic, EphA1: -0.125
EphA2; RKO, 45 min
  Mean Kinase Statistic, EphA2: 0.225
EphA2; SW480, 45 min
  Mean Kinase Statistic, EphA2: -0.097
EphA3; RKO, 45 min
  Mean Kinase Statistic, EphA3: 0.028
EphA3; SW480, 45 min
  Mean Kinase Statistic, EphA3: -0.136
EphA4; RKO, 45 min
  Mean Kinase Statistic, EphA4: -0.122
EphA4; SW480, 45 min
  Mean Kinase Statistic, EphA4: -0.155
EphA5; RKO, 45 min
  Mean Kinase Statistic, EphA5: -0.050
EphA5; SW480, 45 min
  Mean Kinase Statistic, EphA5: -0.324
EphA8; RKO, 45 min
  Mean Kinase Statistic, EphA8: -0.006
EphA8; SW480, 45 min
  Mean Kinase Statistic, EphA8: -0.155
FAK1; RKO, 45 min
  Mean Kinase Statistic, FAK1: 0.052
FAK1; SW480, 45 min
  Mean Kinase Statistic, FAK1: -0.131
FAK2
  Mean Kinase Statistic, FAK2: -0.049
